Reference: patent US8008525B2, “Receptor function regulating agent” (Takeda Pharmaceutical Company Limited, priority 2003, dated 2011)
One block for each molecule: values may come before it.

Columns and labels:
[1] = target: T1, human 14273 receptor (Homo sapiens, UniProt Q5NUL3); assay: Reference Example A2: reactivity of fatty acids, intracellular calcium by FLIPR in CHO-K1 cells expressing human 14273 receptor; assay type: cell-based; details: 30 μM fatty acid; CHO-K1 cells transiently expressing human 14273; FLIPR (FIG. 1-5)
T1 construct: expressed in transfected cells
T1 sequence (Q5NUL3 1-361): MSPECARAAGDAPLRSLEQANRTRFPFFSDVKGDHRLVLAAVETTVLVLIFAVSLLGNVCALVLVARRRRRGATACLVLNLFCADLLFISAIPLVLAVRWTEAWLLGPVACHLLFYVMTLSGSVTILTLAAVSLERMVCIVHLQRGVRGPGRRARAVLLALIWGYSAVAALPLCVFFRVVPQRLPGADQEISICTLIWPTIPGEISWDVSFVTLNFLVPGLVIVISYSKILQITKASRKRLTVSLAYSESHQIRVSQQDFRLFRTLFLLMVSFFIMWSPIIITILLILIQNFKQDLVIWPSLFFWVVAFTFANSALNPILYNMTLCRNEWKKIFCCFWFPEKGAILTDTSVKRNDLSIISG
Protocol: (§1) CHO-K1 cell line was cultured using Ham's F-12 medium (Invitrogen) containing 10% fetal bovine serum (Invitrogen), unless otherwise described. On the day before transfection was conducted, 4.5×10^5 cells were dispersed per 10 cm^2, and cultured at 37° C. for 15 hours by a CO2 incubator adjusted to a CO2 concentration of 5%. Transfection was carried out using a Lipofectamine reagent (Invitrogen) in accordance with the instruction accompanying the reagent. In the case of using a 6-well plate as culture dish, the following steps were performed. First of all, two tubes having a volume of 1.5 ml each were provided, and 100 μl of an Opti-MEM-I medium (Invitrogen) was dispensed to each of the tubes. Next, after adding 1 μg of an expression vector to one tube and adding 6 μl of the Lipofectamine reagent to the other tube, both of them were mixed, and left at rest at room temperature for 20 minutes. A mixture for transfection, in which 800 μl of the Opti-MEM-I medium was added to this solution, was added to the CHO-K1 cells previously washed using the Opti-MEM-I medium, and then the cells were cultured in the CO2 incubator for 6 hours. The cells after culturing were rinsed using PBS (Invitrogen), then detached using a 0.05% trypsin/EDTA solution (Invitrogen), and recovered through centrifugation. The number of the obtained cells was measured, and the cells were diluted to a concentration of 5×10^4 cells per 100 μl of the medium. This dilution was separately injected to a Black-walled 96-well plate (Costar) in an amount of 100 μl per well, and then the cells were incubated overnight in a CO2 incubator. To the CHO-K1 cells which transiently expressed the receptor during the transfection operation, various test samples were added, and the change in the intracellular calcium concentration during this operation was measured using FLIPR (Molecular Device). In order to measure the change in the intracellular calcium concentration with FLIPR, the following pretreatment was performed. First, Assay Buffer for washing cells was prepared in order to add a fluorescent dye Fluo3-AM (DOJIN) to the cells, or to wash cells immediately before performing the FLIPR assay. To a solution prepared by adding 20 ml of 1 M HEPES (pH 7.4) (DOJIN) to 1000 ml of HBSS (Invitrogen) (hereinafter, HBSS/HEPES solution), 10 ml of a solution prepared by dissolving 710 mg of probenecid (Sigma) in 5 ml of a 1 N NaOH solution, and then further added 5 ml of the HBSS/HEPES solution thereto was added, and this solution was used as the Assay Buffer. […] After performing the pretreatment as described above, the changes in the intracellular calcium concentration after addition of various test samples were measured using FLIPR.

[2] = target: T2, mouse 14273 receptor (Mus musculus, UniProt Q7TMA4); assay: Reference Example A2: reactivity of fatty acids, intracellular calcium by FLIPR in CHO-K1 cells expressing mouse 14273 receptor; assay type: cell-based; details: 30 μM fatty acid; CHO-K1 cells transiently expressing mouse 14273; FLIPR (FIG. 1-5)
T2 construct: expressed in transfected cells; host or cells: CHO-K1 cells, transient transfection with Lipofectamine
T2 sequence (Q7TMA4 1-361): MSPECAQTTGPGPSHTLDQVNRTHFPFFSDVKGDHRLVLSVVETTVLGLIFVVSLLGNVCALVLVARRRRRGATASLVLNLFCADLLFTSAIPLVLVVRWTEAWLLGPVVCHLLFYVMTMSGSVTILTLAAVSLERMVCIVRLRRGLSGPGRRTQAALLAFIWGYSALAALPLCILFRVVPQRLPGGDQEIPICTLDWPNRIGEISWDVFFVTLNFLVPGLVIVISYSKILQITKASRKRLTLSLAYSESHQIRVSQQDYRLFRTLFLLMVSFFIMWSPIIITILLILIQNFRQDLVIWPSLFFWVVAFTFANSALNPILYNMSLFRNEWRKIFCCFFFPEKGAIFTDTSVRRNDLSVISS
Protocol: as §1

[3] = target: T1, human 14273 receptor; assay: Test Example 1: regulating effect for 14273 receptor function (agonist effect), change in intracellular calcium level by FLIPR; assay type: cell-based; details: CHO cell line (No. 104) expressing human 14273 receptor, change of fluorescent intensity after 35 seconds
Protocol: CHO cell lines (No. 104) in which a human 14273 receptor has expressed was diluted to contain 3×10^4/100 μl cells, and dispensed in Black walled 96-well plate (Costar) at a density of 100 μl/well, followed by culturing overnight in a CO2 incubator. A change in intracellular calcium level was measured using FLIPR (Molecular Device). The method is described as below. 50 μg of Fluo-3AM (DOJIN) was dissolved in 21 μl of DMSO (DOJIN) and an equal volume of 20% pluronic acid (Molecular Probes) was added thereto, followed by mixing them. The mixture was added to 10.6 ml of the assay buffer [which is prepared by adding 10 ml of a solution, which is prepared by adding 20 ml of 1 M HEPES (pH 7.4, DOJIN) to 1 L of HBSS (Invitrogen), dissolving 710 mg of probenecid (Sigma) in 5 ml of 1 N NaOH, and further adding 5 ml of the above-mentioned HBSS/HEPES solution and mixing it.] supplemented with 105 μl of fetal bovine serum to prepare a fluorescent dye solution. The medium of the cell plate was removed, the fluorescent dye solution was dispensed in 100 μl each per well. The culturing was performed in a CO2 incubator for 1 hour to incorporate the fluorescent dye into the cells. The cells after culturing were washed with the assay buffer. The compounds to be added to the cells were diluted to each concentration with a buffer solution to which CHAPS (DOJIN) was added in 0.015%, and dispensed in a plate for the test sample. Following the pretreatment above, a change in intracellular calcium level after addition of the compound was determined with FLIPR to investigate the agonist effect. An EC50 value was calculated from dose-reaction curve using the change of fluorescent intensity after 35 seconds from the reaction initiation.

[4] = test system: 3T3-L1 adipocytes; assay: Test Example 2: suppression of lipolysis (glycerol production) in differentiated 3T3-L1 adipocytes; assay type: cell-based, mouse; details: treated 45 minutes, isoproterenol 1×10^−10 M, compound 40 μM and 20 μM (FIG. 14)
Protocol: Influence on lipolysis was investigated with use of mouse fibroblast-like cell line 3T3-L1 cells that can differentiate to adipocyte. […] The 3T3-L cells were plated on a plate and cultured to become confluent. The cells were then treated for 48 hours in the medium containing 10 μg/ml of insulin, 0.5 mM of 3-isobutyl-1-methylxanthine (IBMX) and 2.5 μM of dexamethasone to induce differentiation into adipocytes. The culturing was continued for further 11 days. After the 3T3-L1 cells were differentiated into adipocytes, a change in the amount of glycerol produced after lipolysis was assayed. After the cells were washed with modified Krebs-Ringer buffer, they were treated with the compounds for 45 minutes, and the supernatant was then recovered. The glycerol content in the supernatant was determined using a Free Glycerol Determination Kit (Sigma).

[5] = test system: AtT-20 cells; assay: Reference Example A10: inhibitory activity of fatty acids against CRF-induced ACTH secretion from AtT-20 cells; details: 10 nM CRF; 90 minutes; fatty acids conjugated with BSA; adhesive AtT-20 substrain (FIG. 13)

melting point: 150 to 151 °C
Structure (SMILES): O=C(O)CCc1ccc(OCc2cccc(OCC(=O)O)c2)c(F)c1 [Example 107, 3-(4-{[3-(carboxymethoxy)benzyl]oxy}-3-fluorophenyl)propanoic acid]

melting point: 182 to 183 °C
Structure (SMILES): Cl.NCCOc1cc(COc2ccc(CCC(=O)O)cc2F)cc(Oc2ccccc2)c1

response (increase in the intracellular calcium concentration) [1]: specifically responsed | response (increase in the intracellular calcium concentration) [2]: specifically responsed
Structure (SMILES): CCCCCC/C=C\CCCCCCCC(=O)O [palmitoleic acid]

EC50 [3]: ≤ 10 µM
Structure (SMILES): O=C(O)CCc1ccc(OC2CCc3ccccc32)c(Cl)c1 (centres unmarked) [Reference Example 16, 3-Chloro-4-[(2,3-dihydro-1H-inden-1-yl)oxy]benzenepropanoic acid]
amount of glycerol production increased by isoproterenol stimulation (lipolysis) [4]: inhibitory effect | amount of glycerol production increased by isoproterenol stimulation (lipolysis) ([4]; listed as Reference example 16): lowering the amount of the glycerol production

response (increase in the intracellular calcium concentration) [1]: specifically responsed | response (increase in the intracellular calcium concentration) [2]: specifically responsed
Structure (SMILES): CCCCC/C=C\C/C=C\CCCCCCCC(=O)O [linoleic acid]

response (increase in the intracellular calcium concentration) [1]: specifically responsed | response (increase in the intracellular calcium concentration) [2]: specifically responsed
Structure (SMILES): CCCCC/C=C\C/C=C\C/C=C\CCCCC(=O)O [γ-linolenic acid]
suppression of CRF-induced ACTH secretion [5]: significant suppression

EC50 [3]: ≤ 10 µM
Structure (SMILES): CC(C)Oc1ccccc1COc1c(F)cc(CCC(=O)O)cc1F [Example 34, 3-{3,5-difluoro-4-[(2-isopropoxybenzyl)oxy]phenyl}propanoic acid]

EC50 [3]: ≤ 10 µM
Structure (SMILES): O=C(O)CCc1ccc(OCc2cccc3c2OCO3)c(F)c1 [Example 102, 3-[4-(1,3-benzodioxol-4-ylmethoxy)-3-fluorophenyl]propanoic acid]

EC50 [3]: ≤ 10 µM
Structure (SMILES): CCOc1cccc(COc2c(F)cc(CCC(=O)O)cc2F)c1 [Example 8, 4-[(3-Ethoxyphenyl)methoxy]-3,5-difluorobenzenepropanoic acid]

response (increase in the intracellular calcium concentration) [1]: specifically responsed | response (increase in the intracellular calcium concentration) [2]: specifically responsed
Structure (SMILES): CCCCC/C=C\C/C=C\C/C=C\C/C=C\CCCC(=O)O [arachidonic acid]

The remaining lines, values behind:

Structure (SMILES): CCCC(=O)O [butyric acid]
suppression of CRF-induced ACTH secretion [5]: did not exhibit significant inhibition

Structure (SMILES): O=C(O)CCc1ccc(OCc2ccccc2-c2ccccc2)c(F)c1 [Example 22, 4-([1,1′-Biphenyl]-2-ylmethoxy)-3-fluorobenzenepropanoic acid]
EC50 [3]: ≤ 10 µM

Structure (SMILES): CC/C=C\C/C=C\C/C=C\CCCCCCCC(=O)O [α-linolenic acid]
suppression of CRF-induced ACTH secretion [5]: significant suppression

Structure (SMILES): O=C(O)CCc1cc(F)c(OCc2ccccc2N2CCCCC2)c(F)c1 [Example 44, 3-{3,5-difluoro-4-[(2-piperidin-1-ylbenzyl)oxy]phenyl}propanoic acid]
EC50 [3]: ≤ 10 µM

Structure (SMILES): O=C(O)CCc1ccc(OCc2ccccc2Oc2ccccc2)cc1 [Reference Example 30, 4-[(2-Phenoxyphenyl)methoxy]benzenepropanoic acid]
EC50 [3]: ≤ 10 µM

Structure (SMILES): O=C(O)CCc1cc(F)c(OCc2cccc(Oc3ccc(F)cc3)c2)c(F)c1 [Example 54, 3-(3,5-difluoro-4-{[3-(4-fluorophenoxy)benzyl]oxy}phenyl)propanoic acid]
EC50 [3]: ≤ 10 µM

Structure (SMILES): O=C(O)CCc1ccc(OCc2cc(OCC(=O)O)cc(Oc3ccccc3)c2)c(F)c1 [Example 129, 3-(4-{[3-(carboxymethoxy)-5-phenoxybenzyl]oxy}-3-fluorophenyl)propanoic acid]
melting point: 122 to 124 °C

Structure (SMILES): O=C(O)CCc1ccc(OCc2cccc(Oc3ccc(Cl)cc3)c2)c(F)c1 [Example 163, 3-(3-fluoro-4-{[3-(4-chlorophenoxy)benzyl]oxy}phenyl)propanoic acid]
EC50 [3]: ≤ 10 µM

Structure (SMILES): O=C(O)CCc1cc(F)c(OCc2cccc(Oc3nccs3)c2)c(F)c1 [Example 68, 3-(3,5-difluoro-4-{[3-(1,3-thiazol-2-yloxy)benzyl]oxy}phenyl)propanoic acid]
EC50 [3]: ≤ 10 µM
